Measurements published in paper PMC5362808, “Discovery of multi-target receptor tyrosine kinase inhibitors as novel anti-angiogenesis agents” (Scientific Reports, 2017).
Where two headings read alike, the source gives them in different places.

Tests used:
EphB4 = target: T1, EphB4 (Homo sapiens, UniProt P54760); test: ADP-Glo kinase inhibition assay, EphB4; assay type: biochemical; conditions: read-out: EphB4 inhibitory activity (IC50)
T1 sequence (P54760 16-987): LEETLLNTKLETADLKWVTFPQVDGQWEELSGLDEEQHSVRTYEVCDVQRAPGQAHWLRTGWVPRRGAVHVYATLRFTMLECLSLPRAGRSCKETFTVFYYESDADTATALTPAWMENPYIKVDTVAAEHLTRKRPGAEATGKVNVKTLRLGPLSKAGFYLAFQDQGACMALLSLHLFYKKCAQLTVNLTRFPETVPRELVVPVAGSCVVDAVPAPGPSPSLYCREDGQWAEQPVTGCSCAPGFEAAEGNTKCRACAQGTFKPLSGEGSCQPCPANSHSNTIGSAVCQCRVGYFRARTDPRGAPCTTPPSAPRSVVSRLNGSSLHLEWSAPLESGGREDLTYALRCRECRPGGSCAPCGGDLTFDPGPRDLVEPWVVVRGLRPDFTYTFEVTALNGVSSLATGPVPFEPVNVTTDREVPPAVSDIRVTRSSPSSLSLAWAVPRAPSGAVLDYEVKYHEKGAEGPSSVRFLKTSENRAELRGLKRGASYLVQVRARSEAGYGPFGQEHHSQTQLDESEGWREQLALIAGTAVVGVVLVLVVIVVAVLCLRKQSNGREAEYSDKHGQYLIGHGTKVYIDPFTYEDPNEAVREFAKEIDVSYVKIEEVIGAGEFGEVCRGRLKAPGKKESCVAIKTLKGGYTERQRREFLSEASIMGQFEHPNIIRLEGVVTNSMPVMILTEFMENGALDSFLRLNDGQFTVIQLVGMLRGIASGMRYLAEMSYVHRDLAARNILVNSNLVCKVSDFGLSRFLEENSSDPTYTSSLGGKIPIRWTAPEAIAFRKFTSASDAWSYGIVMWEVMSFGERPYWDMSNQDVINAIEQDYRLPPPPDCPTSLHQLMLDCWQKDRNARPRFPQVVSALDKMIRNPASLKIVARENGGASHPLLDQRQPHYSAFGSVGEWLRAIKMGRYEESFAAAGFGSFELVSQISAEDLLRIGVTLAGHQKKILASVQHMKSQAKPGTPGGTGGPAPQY
Description: (§1) Tyrosine kinase inhibition were tested by luminescent ADP-Glo^TM assay.
(§2) The kinase assay was performed in duplicate in a reaction mixture of final volume of 10 μL. […] The assay plate was incubated at 30 °C for 1 h. After the plate was cooled at room temperature for 5 min, 5 μL of ADP-Glo reagent was added into each well to stop the reaction and consume the remaining […] within 40 min. At the end, 10 μL of kinase detection reagent was added into the well and incubated for 30 min to produce a luminescence signal. […] The assay plate was incubated at 30 °C for 4 h. After the plate was cooled at room temperature for 5 min, 5 μL of ADP-Glo reagent was added into each well to stop the reaction and consume the remaining […] within 1 h. At the end, 10 μL of kinase detection reagent was added into the well and incubated for 30 min to produce a luminescence signal. The luminescence was read by VICTOR-X multi- label plate reader. The signal was correlated with the amount of […] present in the reaction and was […] with the kinase activity.

EA.hy926 = test: MTT anti-proliferative assay against human vascular endothelial cell; assay type: cell-based; conditions: EA.hy 926, 48 h treatment
Description: Growth inhibitory activities were evaluated against human vascular endothelial cell (EA.hy926)[25]. Thirteen selected title compounds were tested using MTT assay to assess cell proliferation. Exponentially growing cells were harvested and plated in 96-well plates at a concentration of […] cells/well, and then incubated for 24 h at 37 °C. The cells were treated with title compounds respectively at various concentrations for 48 h. Then, […] fresh MTT (5 mg/mL) was added to each well and incubated for 4 h at 37 °C. Supernatant was discarded, and […] DMSO was added to each well. Absorbance values were determined by a microplate reader (Bio-Rad Instruments) at 490 nm. The IC50 values were calculated according to inhibition ratios.

TIE-2 = TIE-2 (Homo sapiens, UniProt Q02763); test: ADP-Glo kinase inhibition assay, TIE-2; assay type: biochemical
TIE-2, sequence (Q02763 23-1124): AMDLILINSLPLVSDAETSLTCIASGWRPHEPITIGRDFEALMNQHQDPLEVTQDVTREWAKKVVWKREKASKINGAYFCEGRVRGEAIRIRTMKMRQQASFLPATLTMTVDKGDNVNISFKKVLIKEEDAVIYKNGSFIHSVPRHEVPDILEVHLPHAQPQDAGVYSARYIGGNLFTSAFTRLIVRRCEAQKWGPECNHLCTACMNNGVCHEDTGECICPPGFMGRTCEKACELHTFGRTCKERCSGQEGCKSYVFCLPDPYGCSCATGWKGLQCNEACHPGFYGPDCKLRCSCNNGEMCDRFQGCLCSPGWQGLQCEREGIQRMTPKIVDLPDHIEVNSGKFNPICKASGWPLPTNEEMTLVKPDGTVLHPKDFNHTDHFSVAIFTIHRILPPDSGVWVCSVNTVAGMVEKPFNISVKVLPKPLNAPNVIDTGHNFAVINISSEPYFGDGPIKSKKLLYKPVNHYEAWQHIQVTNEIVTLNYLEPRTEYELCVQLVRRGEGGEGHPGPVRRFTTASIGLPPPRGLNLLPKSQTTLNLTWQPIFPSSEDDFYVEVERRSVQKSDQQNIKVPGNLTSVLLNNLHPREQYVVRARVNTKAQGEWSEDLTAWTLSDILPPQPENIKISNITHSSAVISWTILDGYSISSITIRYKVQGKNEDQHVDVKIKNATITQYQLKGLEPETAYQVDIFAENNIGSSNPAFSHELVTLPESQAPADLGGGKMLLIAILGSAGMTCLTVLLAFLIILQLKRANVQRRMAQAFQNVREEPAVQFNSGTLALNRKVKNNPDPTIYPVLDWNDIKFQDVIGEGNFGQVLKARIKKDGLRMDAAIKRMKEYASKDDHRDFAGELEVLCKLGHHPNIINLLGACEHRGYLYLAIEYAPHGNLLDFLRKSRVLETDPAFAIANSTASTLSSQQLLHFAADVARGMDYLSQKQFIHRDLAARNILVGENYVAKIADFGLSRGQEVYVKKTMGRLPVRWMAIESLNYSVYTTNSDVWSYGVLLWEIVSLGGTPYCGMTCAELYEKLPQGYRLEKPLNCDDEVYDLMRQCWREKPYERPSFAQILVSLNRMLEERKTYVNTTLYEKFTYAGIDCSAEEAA
Description: as §1, §2

VEGFR-2 = VEGFR-2 (Homo sapiens, UniProt P35968); test: ADP-Glo kinase inhibition assay, VEGFR-2; assay type: biochemical; conditions: read-out: VEGFR-2 inhibitory activity (IC50)
VEGFR-2, sequence (P35968 20-1356): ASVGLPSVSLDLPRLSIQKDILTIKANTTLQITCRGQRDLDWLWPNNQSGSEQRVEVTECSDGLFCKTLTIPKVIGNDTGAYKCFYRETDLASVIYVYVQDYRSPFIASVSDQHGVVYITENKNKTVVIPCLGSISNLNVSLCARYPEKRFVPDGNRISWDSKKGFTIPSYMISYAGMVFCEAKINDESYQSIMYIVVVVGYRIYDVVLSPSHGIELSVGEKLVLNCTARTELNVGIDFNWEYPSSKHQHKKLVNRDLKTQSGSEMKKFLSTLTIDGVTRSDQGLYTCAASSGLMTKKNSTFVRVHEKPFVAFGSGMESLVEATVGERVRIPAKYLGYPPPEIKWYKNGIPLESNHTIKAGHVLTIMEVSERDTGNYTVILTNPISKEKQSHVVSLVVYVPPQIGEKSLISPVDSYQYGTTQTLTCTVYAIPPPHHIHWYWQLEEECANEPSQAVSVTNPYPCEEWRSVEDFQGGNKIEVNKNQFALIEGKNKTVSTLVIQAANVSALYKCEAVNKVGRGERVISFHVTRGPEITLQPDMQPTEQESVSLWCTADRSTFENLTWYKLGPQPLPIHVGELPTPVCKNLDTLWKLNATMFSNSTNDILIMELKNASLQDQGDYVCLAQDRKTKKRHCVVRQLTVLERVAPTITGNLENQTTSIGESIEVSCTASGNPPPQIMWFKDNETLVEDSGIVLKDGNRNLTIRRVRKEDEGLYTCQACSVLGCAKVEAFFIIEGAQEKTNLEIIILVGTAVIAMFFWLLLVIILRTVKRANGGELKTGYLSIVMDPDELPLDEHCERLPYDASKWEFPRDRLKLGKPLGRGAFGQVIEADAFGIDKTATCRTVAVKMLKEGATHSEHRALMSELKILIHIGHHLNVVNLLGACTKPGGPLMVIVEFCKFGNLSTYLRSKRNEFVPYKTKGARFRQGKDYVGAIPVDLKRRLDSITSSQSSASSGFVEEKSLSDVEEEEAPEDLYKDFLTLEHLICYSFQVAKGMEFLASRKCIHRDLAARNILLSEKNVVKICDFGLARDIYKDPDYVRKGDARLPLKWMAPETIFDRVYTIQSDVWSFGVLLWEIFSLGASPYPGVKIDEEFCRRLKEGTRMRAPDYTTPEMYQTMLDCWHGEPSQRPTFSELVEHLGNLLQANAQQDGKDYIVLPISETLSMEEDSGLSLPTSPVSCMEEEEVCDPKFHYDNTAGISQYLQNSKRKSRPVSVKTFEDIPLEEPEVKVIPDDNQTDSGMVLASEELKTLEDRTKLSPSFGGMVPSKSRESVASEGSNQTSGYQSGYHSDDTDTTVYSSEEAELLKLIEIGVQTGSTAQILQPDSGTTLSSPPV
Description: as §1, §2

[1] = Table 2, ATP 50 μM, read-out: TIE-2 inhibitory activity (IC50)
[2] = Table 1, ATP 50 μM, read-out: Tie-2 inhibitory activity (IC50)

Q: Which results are given for `O=C(Nc1ccc(-c2cccc(NC(=O)C3CC3)n2)cc1)Nc1cccc(C(F)(F)F)c1` [CDAU-21]?
A: IC50 (EphB4; Table 2, ATP 50 μM): 0.162 µM; IC50 (EA.hy926): 40.5 µM; IC50 (TIE-2; [1]): 0.0428 µM; IC50 (VEGFR-2; Table 2, ATP 50 μM): 0.00627 µM

Q: What does the source list for `O=C(Nc1ccc(F)cc1)Nc1ccc(-c2cccc(NC(=O)C3CC3)n2)cc1` [CDAU-14]?
A: IC50 (EphB4; Table 2, ATP 50 μM): > 1 µM; IC50 (TIE-2; [1]): 0.0329 µM

Q: What does the source list for `CN(C)C(=O)Nc1ccc(-c2ccc(NC(=O)C3CC3)nc2)cc1` [CDAU-11]?
A: IC50 (EphB4; Table 1, ATP 50 μM): > 1 µM; IC50 (TIE-2; [2]): > 1 µM; IC50 (VEGFR-2; Table 1, ATP 50 μM): > 1 µM

Q: Which IC50 (EphB4; Table 2, ATP 50 μM) does the source give for `O=C(Nc1ccc(-c2cccc(NC(=O)C3CC3)n2)cc1)Nc1ccccc1Cl` [CDAU-16] here?
A: The IC50 was greater than 1 µM.

Q: What about the IC50 (TIE-2; [1]) of the same compound?
A: The IC50 was greater than 1 µM.

Q: What about the IC50 (VEGFR-2; Table 2, ATP 50 μM) of the same compound?
A: Its IC50 is 0.0734 µM.

Q: With `O=C(Nc1ccc(-c2cccc(NC(=O)C3CC3)n2)cc1)Nc1ccc(F)cc1F` [CDAU-22] as the compound, how does the IC50 (TIE-2; [1]) read?
A: Its IC50 is greater than 1 µM.

Q: And the IC50 (VEGFR-2; Table 2, ATP 50 μM)?
A: The IC50 was greater than 1 µM.

Q: For `CN(C)CCNC(=O)Nc1ccc(-c2ccc(NC(=O)C3CC3)nc2)cc1` [CDAU-10], which IC50 (EphB4; Table 1, ATP 50 μM) is on record?
A: The IC50 was greater than 1 µM.

Q: And the IC50 (EA.hy926)?
A: The IC50 was greater than 1000 µM.

Q: What about the IC50 (TIE-2; [2]) of the same compound?
A: Its IC50 is greater than 1 µM.

Q: What about the IC50 (VEGFR-2; Table 1, ATP 50 μM) of the same compound?
A: Its IC50 is greater than 1 µM.

Q: For `O=C(Nc1ccc(-c2cccc(NC(=O)C3CC3)n2)cc1)Nc1cccc(F)c1` [CDAU-24], which IC50 (TIE-2; [1]) is on record?
A: Its IC50 is greater than 1 µM.

Q: And the IC50 (VEGFR-2; Table 2, ATP 50 μM)?
A: Its IC50 is greater than 1 µM.

Q: How did the IC50 (EphB4; Table 2, ATP 50 μM) turn out when `O=C(Nc1ccc(OC(F)(F)F)cc1)Nc1ccc(-c2cccc(NC(=O)C3CC3)n2)cc1` [CDAU-19] was run?
A: The IC50 was greater than 1 µM.

Q: And the IC50 (EA.hy926)?
A: The IC50 was 31 µM.

Q: What about the IC50 (VEGFR-2; Table 2, ATP 50 μM) of the same compound?
A: The IC50 was 0.034 µM.

Q: `O=C(Nc1ccc(-c2ccc(NC(=O)C3CC3)nc2)cc1)Nc1ccc(C(F)(F)F)c(Cl)c1` [CDAU-5] was tested. Which IC50 (EphB4; Table 1, ATP 50 μM) did it give?
A: Its IC50 is greater than 1 µM.

Q: What about the IC50 (EA.hy926) of the same compound?
A: Its IC50 is 152 µM.

Q: What about the IC50 (TIE-2; [2]) of the same compound?
A: Its IC50 is 0.0613 µM.

Q: What about the IC50 (VEGFR-2; Table 1, ATP 50 μM) of the same compound?
A: The IC50 was 0.00552 µM.

Q: What does the source list for `Cc1ccc(NC(=O)Nc2ccc(-c3cccc(NC(=O)C4CC4)n3)cc2)cc1Cl` [CDAU-13]?
A: IC50 (EphB4; Table 2, ATP 50 μM): > 1 µM; IC50 (TIE-2; [1]): 0.271 µM; IC50 (VEGFR-2; Table 2, ATP 50 μM): > 1 µM

Q: `O=C(Nc1ccc(-c2ccc(NC(=O)C3CC3)nc2)cc1)Nc1ccccc1F` [CDAU-7] was tested. Which IC50 (EphB4; Table 1, ATP 50 μM) did it give?
A: Its IC50 is greater than 1 µM.

Q: What about the IC50 (EA.hy926) of the same compound?
A: The IC50 was 46.2 µM.

Q: And the IC50 (TIE-2; [2])?
A: The IC50 was greater than 1 µM.

Q: What about the IC50 (VEGFR-2; Table 1, ATP 50 μM) of the same compound?
A: Its IC50 is greater than 1 µM.

Q: Which results are given for `O=C(Nc1ccc(OC(F)(F)F)cc1)Nc1ccc(-c2ccc(NC(=O)C3CC3)nc2)cc1` [CDAU-8]?
A: IC50 (EphB4; Table 1, ATP 50 μM): > 1 µM; IC50 (TIE-2; [2]): > 1 µM; IC50 (VEGFR-2; Table 1, ATP 50 μM): > 1 µM
